Assay results reported in US12465602B2, “Use of an opioid molecule for treating dry eye and eyes suffering from allergies” (H4 ORPHAN PHARMA, priority 2019, dated 2025).
Where two headings read alike, the source gives them in different places.

Experiments:
non-mutated CFTR = biological target: T1, non-mutated CFTR (Homo sapiens, UniProt P13569); experiment: Ussing chamber short-circuit current on lacrimal gland epithelial cells expressing non-mutated CFTR; type: cell-based
T1 construct: endogenous in cells; host or cells: human glandular (lacrimal gland) epithelial cells, polarised on Snapwell filters
From the text: To study this action on the modulation of CFTR, the inventors have used the Ussing chamber method, invented by the Danish Hans H. Ussing at the end of the 1950s. This technique allows studying ionic exchanges through an epithelium, as they allow maintaining the tissue of interest in survival for a few hours under controlled conditions of temperature and medium. The positioning of the tissue between two half-chambers allows defining an apical compartment (corresponding to the lumen of the organ) and a basolateral compartment (corresponding to the blood compartment) and studying the exchanges between these two compartments via the tissue.
This technique is commonly used and it is particularly well-suited for a pharmacological approach of ionic transports and to search for molecules of therapeutic interest in the context of ionic secretions from epithelial cells. It consists in measuring the transepithelial current (called short-circuit and denoted Ise). Ise is expressed in amperes relative to the unit surface area of the epithelium (Ise in μA/cm2). The cells are cultured on a porous filter for 10 to 15 days at the liquid-liquid then air-liquid interface in order to mimic conditions close to in vivo. The transepithelial resistance is regularly measured during the culture. The higher this resistance (several hundred ohms), the more the epithelial tissue is contiguous, polarised and therefore tight. At the Air (apical side)—Liquid (basolateral side) interface, the epithelial cells polarise and form a tight mat that can be studied with the Ussing chamber technique. We have used a system with 6 vats from Physiologie Instrument@ enabling 6 experiments in parallel.
The inventors have prepared a 100 μM stock solution in DMSO.

basophils = experiment: Basophil activation test (Flow CAST kit), CD63 expression by flow cytometry after anti-FcεRI stimulation; type: cell-based, human; details: noscapine 10 μM, whole blood, FIG. 9
From the text: These two cells intervene in the IgE-dependent allergic reaction; they express the high-affinity IgE receptor. Nevertheless, the mediators released by these cells during this activation are different for some of them. Moreover, basophils and especially mast cells intervene in innate immunity. Thus, basophils and mast cells have many characteristics in common and more particularly, the secretion of IL4 and IL13 which are known to induce the stimulation of collagen synthesis and the proliferation of fibroblasts responsible for fibrosis. Fibrosis can affect the Meibomian glands in dry eye and allergic eye. […]
It is designed for the in vitro diagnosis of the expression of the CD63 marker as a surface marker of activated basophils. The test is carried out on whole blood; flow cytometry allows quantifying the expression of CD63 at the surface of activated basophils. […]
This granularity may be due to irregularities inside or at the surface of the cells or to the density of the organelles that compose it (acess.ens-lyon.fr). Afterwards, fluorescence markers allow better characterising the different cell subpopulations (these markers are coupled with the differentiation clusters). […] The latter has been analysed in order to observe the expected results in the absence of stimulation and therefore of degranulation. […]

[1] = cited from earlier work

T1 sequence (P13569 whole entry, change not shown): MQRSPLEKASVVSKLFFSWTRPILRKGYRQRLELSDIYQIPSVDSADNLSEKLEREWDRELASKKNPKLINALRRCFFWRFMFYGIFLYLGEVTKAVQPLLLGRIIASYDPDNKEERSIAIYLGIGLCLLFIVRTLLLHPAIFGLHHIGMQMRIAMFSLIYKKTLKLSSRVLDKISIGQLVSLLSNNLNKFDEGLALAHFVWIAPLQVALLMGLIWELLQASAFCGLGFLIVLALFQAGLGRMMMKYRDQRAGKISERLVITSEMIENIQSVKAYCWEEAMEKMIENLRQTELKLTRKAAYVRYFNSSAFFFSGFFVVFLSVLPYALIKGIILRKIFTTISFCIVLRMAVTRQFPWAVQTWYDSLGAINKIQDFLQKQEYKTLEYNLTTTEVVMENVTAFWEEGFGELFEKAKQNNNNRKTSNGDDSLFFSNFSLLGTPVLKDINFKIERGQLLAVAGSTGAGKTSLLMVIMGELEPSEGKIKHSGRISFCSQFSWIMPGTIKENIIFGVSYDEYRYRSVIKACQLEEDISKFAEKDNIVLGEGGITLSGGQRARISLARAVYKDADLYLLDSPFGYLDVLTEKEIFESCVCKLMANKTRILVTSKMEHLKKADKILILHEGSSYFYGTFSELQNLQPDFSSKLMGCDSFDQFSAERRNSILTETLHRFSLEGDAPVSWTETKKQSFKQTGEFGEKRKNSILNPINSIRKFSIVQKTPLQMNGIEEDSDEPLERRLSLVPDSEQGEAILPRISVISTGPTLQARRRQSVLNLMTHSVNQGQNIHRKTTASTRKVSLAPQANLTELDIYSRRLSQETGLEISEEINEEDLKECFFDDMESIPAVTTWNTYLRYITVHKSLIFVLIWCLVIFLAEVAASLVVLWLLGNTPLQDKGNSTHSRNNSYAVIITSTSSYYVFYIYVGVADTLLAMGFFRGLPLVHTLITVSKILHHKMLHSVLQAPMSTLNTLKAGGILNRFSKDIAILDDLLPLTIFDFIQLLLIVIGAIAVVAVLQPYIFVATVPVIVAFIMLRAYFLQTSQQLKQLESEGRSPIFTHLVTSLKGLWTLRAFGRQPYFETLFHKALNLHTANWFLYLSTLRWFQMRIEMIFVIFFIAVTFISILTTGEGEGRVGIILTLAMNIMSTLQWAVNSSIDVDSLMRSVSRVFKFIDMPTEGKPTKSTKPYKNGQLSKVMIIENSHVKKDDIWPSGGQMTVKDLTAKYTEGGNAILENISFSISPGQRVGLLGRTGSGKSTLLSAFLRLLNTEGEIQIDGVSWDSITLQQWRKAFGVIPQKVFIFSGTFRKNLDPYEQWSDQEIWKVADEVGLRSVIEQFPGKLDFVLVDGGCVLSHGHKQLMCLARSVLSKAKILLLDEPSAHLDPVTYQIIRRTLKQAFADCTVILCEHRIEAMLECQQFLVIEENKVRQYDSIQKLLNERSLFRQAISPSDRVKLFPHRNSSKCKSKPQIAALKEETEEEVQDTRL

SMILES | effect of Inh172 on cellular potential (non-mutated CFTR; Inh172 10 μM, first series (apical side)) | effect of Inh172 on cellular potential, second series (non-mutated CFTR; Inh172 10 μM, lacrimal gland epithelial cells) | short-circuit current differential after addition of noscapine, apical side (non-mutated CFTR; 10 μM noscapine, non-mutated epithelial cells, apical side, switches from 16) | short-circuit current differential after addition of noscapine, second series (non-mutated CFTR; 10 μM noscapine, non-mutated lacrimal gland epithelial cells, printed apical side, switches from 6.5) | EC50 (non-mutated CFTR; apical pole, FIG. 2, read-out: EC50 activity for the apical pole) [µM] | EC50 (non-mutated CFTR; basal pole, FIG. 3, read-out: EC50 for the basal pole) [µM] | inhibition of basophil degranulation caused by anti-FcεRI antibody (CD63+ CCR3+) (basophils) | solubility in organic solvents ([1]; benzene and acetone) | solubility in water ([1]; water)
O=C(O)c1ccc(C=C2SC(=S)N(c3cccc(C(F)(F)F)c3)C2=O)cc1 [Inh172] | completely blocks the cellular potential | completely blocks the cellular potential | – | – | – | – | – | – | –
COc1ccc2c(c1OC)C(=O)O[C@@H]2[C@H]1c2c(cc3c(c2OC)OCO3)CCN1C [noscapine, (3S)-6,7-dimethoxy-3-[(5R)-4-methoxy-6-methyl-7,8-dihydro-5H-[1,3]dioxolo[4,5-g]isoquinolin-5-yl]-3H-2-benzofuran-1-one] | – | – | more than 20 μA/cm2 | more than 7.5 μA/cm2 | 3.42 | 4.87 | blocks the activation of basophil degranulation | soluble in benzene and acetone | Insoluble in water
